# Data from publication PMC3997506, “Novel PPAR Pan Agonist, ZBH Ameliorates Hyperlipidemia and Insulin Resistance in High Fat Diet Induced Hyperlipidemic Hamster” (PLoS ONE, 2014).
# pEC50, pKd: −log10 of the molar value.
# Assays:
# SIRT1 = target: T1, SIRT1 (Homo sapiens, UniProt Q96EB6); assay: SIRT1 enzyme activity assay (Direct Fluorescent Screening Assay kit); assay type: biochemical; conditions: read-out: SIRT1 maximal activation
# T1 construct: purchased Cayman chemical
# T1 sequence (Q96EB6 1-747): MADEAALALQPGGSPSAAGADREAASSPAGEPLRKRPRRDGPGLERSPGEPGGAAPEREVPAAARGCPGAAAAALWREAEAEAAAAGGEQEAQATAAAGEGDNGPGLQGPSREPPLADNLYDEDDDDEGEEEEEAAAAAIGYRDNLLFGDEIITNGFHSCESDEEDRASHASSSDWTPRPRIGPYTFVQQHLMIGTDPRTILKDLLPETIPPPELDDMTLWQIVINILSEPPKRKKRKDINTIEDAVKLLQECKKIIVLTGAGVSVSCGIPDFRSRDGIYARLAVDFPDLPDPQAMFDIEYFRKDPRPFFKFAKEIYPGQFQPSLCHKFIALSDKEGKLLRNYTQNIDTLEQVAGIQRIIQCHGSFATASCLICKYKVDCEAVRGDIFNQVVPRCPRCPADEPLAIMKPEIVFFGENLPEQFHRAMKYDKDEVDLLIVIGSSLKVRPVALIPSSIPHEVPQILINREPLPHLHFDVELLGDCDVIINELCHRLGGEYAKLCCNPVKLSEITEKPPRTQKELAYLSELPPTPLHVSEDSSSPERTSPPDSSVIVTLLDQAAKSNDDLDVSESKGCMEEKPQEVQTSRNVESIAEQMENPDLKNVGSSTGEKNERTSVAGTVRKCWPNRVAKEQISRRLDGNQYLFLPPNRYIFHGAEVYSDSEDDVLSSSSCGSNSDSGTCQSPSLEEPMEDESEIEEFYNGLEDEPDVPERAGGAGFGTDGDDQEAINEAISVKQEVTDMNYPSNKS
# Description: SIRT1 enzyme activity was assayed with the SIRT1 Direct Fluorescent Screening Assay kit (Cayman chemical, MI, USA), according to the manufacturer’s instructions. Fluorescence was measured on an EnVision Multilabel Plate Reader (PerkinElmer, CA, USA). DMSO was used as a negative control and also as a solvent for resveratrol and ZBH.
# Figure 4 Activation of SIRT1 by ZBH. SIRT1 enzyme activity was measured after treatment with ZBH and Resveratrol, and the fluorescence was tested on EnVision Multilabel Plate Reader. Values are mean±SE, n = 3.
# hPPARδ = target: T2, hPPARδ (Homo sapiens, UniProt Q03181); assay: In vitro transactivation assay, GAL4-hPPAR luciferase reporter in HEK-293 cells; assay type: cell-based; conditions: HEK-293, 24 h treatment
# T2 sequence (Q03181 171-441 limits assumed): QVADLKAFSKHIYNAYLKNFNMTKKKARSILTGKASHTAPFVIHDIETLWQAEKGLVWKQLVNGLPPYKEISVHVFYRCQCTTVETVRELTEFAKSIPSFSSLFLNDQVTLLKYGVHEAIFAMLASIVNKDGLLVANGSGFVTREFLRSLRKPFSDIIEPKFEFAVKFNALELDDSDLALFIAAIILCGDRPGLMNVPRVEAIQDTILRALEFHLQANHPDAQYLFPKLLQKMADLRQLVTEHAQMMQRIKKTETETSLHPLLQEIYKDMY
# Description: (§1) Transactivation of PPARs was analyzed in a cell-based luciferase reporter assay using HEK-293 cells transiently transfected to express hPPAR-GAL4 chimeric receptors with plasmids GAL4-hPPAR α, γ, or δ, and pUAS (5x)-tk-luc receptor vector as previously described. 24 h after transfection, cells were treated with the indicated compounds, followed by the measurement of luciferase activity 24 h later. Mean values represent those obtained from at least three independent experiments performed in triplicate and normalized by the Renilla luciferase reading.
# (§2) HEK-293 cells transiently transfected to express hPPAR-GAL4 chimeric receptors with plasmids GAL4-hPPAR α, γ, or δ, and pUAS (5x)-tk-luc receptor vector. 24 h after transfection, cells were treated with the indicated compounds at various concentrations followed by the measurement of luciferase activity 24 h after treatment. The results shown are the mean values obtained from at least three independent experiments performed in triplicate normalized by the Renilla luciferase reading.
# hPPARγ = target: T3, hPPARγ (Homo sapiens, UniProt P37231); assay: as above; assay type: cell-based; conditions: HEK-293, 24 h treatment
# T3 sequence (P37231 238-505 limits assumed): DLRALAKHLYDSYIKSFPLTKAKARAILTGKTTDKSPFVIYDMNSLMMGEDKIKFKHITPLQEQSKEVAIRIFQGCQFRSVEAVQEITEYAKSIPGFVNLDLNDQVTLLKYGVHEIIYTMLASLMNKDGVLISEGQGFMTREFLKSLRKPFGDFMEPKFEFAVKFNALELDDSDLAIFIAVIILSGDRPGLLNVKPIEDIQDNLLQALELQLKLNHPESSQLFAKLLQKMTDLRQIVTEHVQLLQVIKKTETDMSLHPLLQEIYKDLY
# Description: as §1, §2
# hPPARα = target: T4, hPPARα (Homo sapiens, UniProt Q07869); assay: as above; assay type: cell-based
# T4 sequence (Q07869 200-468 limits assumed): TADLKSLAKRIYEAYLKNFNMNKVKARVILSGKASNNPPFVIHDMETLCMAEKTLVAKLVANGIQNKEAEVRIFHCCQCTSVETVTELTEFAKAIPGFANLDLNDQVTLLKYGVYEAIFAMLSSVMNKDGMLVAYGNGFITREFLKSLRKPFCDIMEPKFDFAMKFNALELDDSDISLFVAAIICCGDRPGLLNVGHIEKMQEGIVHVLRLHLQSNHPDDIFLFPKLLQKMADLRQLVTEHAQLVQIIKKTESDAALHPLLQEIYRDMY
# Description: as §1, §2
# hPPARγ-LBD = target: T5, hPPARγ-LBD (Homo sapiens, UniProt P37231); assay: Ligand binding assay with SPR (Biacore T100); conditions: steady state affinity fitting
# T5 construct: purchased Cayman chemical
# T5 sequence (P37231 238-503 limits assumed): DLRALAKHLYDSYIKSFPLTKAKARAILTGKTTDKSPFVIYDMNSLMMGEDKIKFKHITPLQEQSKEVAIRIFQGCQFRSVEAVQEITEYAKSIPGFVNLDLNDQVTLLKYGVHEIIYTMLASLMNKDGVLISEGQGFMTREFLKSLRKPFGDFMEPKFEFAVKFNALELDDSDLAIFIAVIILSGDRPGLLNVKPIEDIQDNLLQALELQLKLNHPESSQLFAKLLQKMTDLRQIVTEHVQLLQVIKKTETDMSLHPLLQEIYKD
# Description: The binding affinities of ZBH for PPARα-LBD, PPARδ-LBD or PPARγ-LBD (Cayman chemical, MI, USA) were assayed using SPR-based Biacore T100 (GE Healthcare/Biacore, Uppsala, Sweden) as described previously, [20].
smiles,measurement,setting,value
"COc1ccc(/C=C/c2cc(OC)cc(OCCCC(C)(C)C(=O)O)c2)cc1 [ZBH, (E)-5-(3-methoxy-5-(4-methoxystyryl)phenoxy) -2,2-dimethylpentanoic acid]",Emax,SIRT1,136%
same,pEC50,hPPARδ,4.72
same,pEC50,hPPARγ,4.60
same,PPARα transactivation selectivity over other PPAR subtypes (EC50 fold),hPPARα; Discussion,11 fold
same,maximal activation of PPARα,hPPARα; HEK-293,approximately 11 fold
same,pEC50,"hPPARα; HEK-293, 24 h treatment",5.76
same,PPARα activation potency (EC50) relative to bezafibrate,hPPARα; ZBH vs bezafibrate,21 fold
same,PPARα activation exceeds PPARγ activation,hPPARα; selectivity α over γ,14 fold
same,PPARα activation exceeds PPARδ activation,hPPARα; selectivity α over δ,11 fold
same,pKd,hPPARγ-LBD,5.41
